Experimental data reported in patent publication US12570612B2, “Substituted nitrogen heterocyclic compound and anesthetic effect thereof” (priority 2019, dated 2026).
Entries after “also recorded” stand apart in the source; their conditions may differ. Read-outs that look alike come from different tables or passages of the source. Marks after values point to notes of the source that are not given here.

Assays:
[1] = tested on: H295R cell line; assay: Adrenocortical function in vitro test: secretion of cortisol and corticosterone, Group B compounds; format: cell-based; details: H295R cells; for EC50: 0.1-10000 nM, HPLC-MS/MS
[2] = tested on: circulatory function of rats; details: rat, in vivo
[3] = tested on: Sprague-Dawley rats; assay: Pharmacological effect and adverse reactions under the equivalent dose (2ED50), Group D compounds; format: in vivo
Source text: (§1) Evaluation index: onset time: from the completion of drug injection to the disappearance of forepaw righting reflex in rats; Duration of anesthesia: the time from the disappearance of rat forepaw righting reflex to the recovery of rat forepaw righting reflex; Recovery time of anesthesia: the time from the […] to complete recovery;

[4] = tested on: Sprague-Dawley rats; assay: animal or person
Description: (§2) Adult male Sprague-Dawley rats (250-300 g) were selected for the experiment. […] The anesthesia effects of the compounds were assessed in rats using a LORR assay and a period >30 s was considered as an indicator of general anesthesia.

[5] = tested on: Sprague-Dawley rats; assay: animal or person; format: in vivo
Source text: (§3) Evaluating indicator: The end point of anesthesia: the disappearance of forepaw righting reflex (lorr) was used as the end point of anesthesia; General anesthesia effect: the disappearance of forepaw righting reflex in rats lasting for 30 seconds is taken as the index of general anesthesia effect; Anesthesia recovery index: the recovery of rat forepaw righting reflex was used as the index of anesthesia recovery.

[6] = tested on: circulatory function of rats; assay: Circulatory function of rats (MAP, HR) by implanted telemetry, Group D compounds; details: 2ED50, rats, FIG. 19-22
Source text: (§5) First, the animal model was established, and the left ventricular catheter, abdominal aorta catheter and electrocardiogram wire were placed. At least one week after the operation, the signal can be collected to start the test. At the beginning of the experiment, after the placement of the indwelling needle in the tail vein of rats, connect the extension tube, put the rats together with the feeding cage on the signal receiver and start collecting data. […] All compounds or drugs were given at a constant volume of 0.6 ml at a uniform rate of 0.1 ml/s.
Evaluation indexes: Collect the blood pressure, heart rate and other data of rats during and 15 minutes after administration, and judge the effect of the compound of the invention on the circulatory function of rats with the indexes of mean arterial pressure (MAP) and heart rate (HR).

[7] = tested on: Sprague-Dawley rats; assay: Pharmacological characteristics at equivalent doses (2ED50), Group A compounds; format: in vivo; details: 2ED50, tail vein
[8] = tested on: Sprague-Dawley rats; assay: Pharmacological effect and adverse reactions under the equivalent dose (2ED50), Group C compounds; format: in vivo
Source text: as §1

[9] = tested on: circulatory function of rats; details: rat, in vivo; remark: listed apart in the source
Description: First, animal models were established. […] At least one week after surgery, data were recorded.
Finally, the pharmacological effects, adverse reactions, and behavioral manifestations of the rats were observed and recorded
After data acquisition, the test was stopped.

[10] = tested on: circulatory function of rats; assay: Circulatory function of rats (MAP, HR) by implanted telemetry, Group C compounds; details: 2ED50, rats, FIG. 13-16
Source text: as §5

[11] = tested on: Sprague-Dawley rats; assay: animal or person; remark: listed apart in the source
Description: as §2

[12] = tested on: H295R cell line; assay: Adrenocortical function in vitro test: secretion of cortisol and corticosterone, Group A compounds; format: cell-based; details: H295 cells; for EC50: 0.1-10000 nM, HPLC-MS/MS
[13] = tested on: Sprague-Dawley rats; assay: animal or person; format: in vivo; remark: listed apart in the source
Source text: as §3, with “LORR” for “the disappearance of forepaw righting reflex (lorr)”

[14] = tested on: Sprague-Dawley rats; format: in vivo; details: tail vein
[15] = tested on: SD rats
Method in brief: (§4)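 Adult male SD rats (250–350 g) received continuous infusion. Read-outs: time from infusion start to […]; after 1 h infusion, time from stop to return of forepaw turning reflex and to full recovery.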

[16] = tested on: Sprague-Dawley rats; assay: Continuous infusion at 2 times the MIR for 1 hour, Group B compounds; format: in vivo
[17] = tested on: Sprague-Dawley rats
Description: Adult male Sprague-Dawley rats with body weight ranging from 250 to 300 gm were selected for continuous infusion test. […] Time to recovery of righting reflex from stopping infusion, and time to fully awake from stopping infusion were recorded.

[18] = tested on: SD rats; remark: listed apart in the source
Method in brief: as §4

[19] = tested on: Sprague-Dawley rats; format: in vivo; details: tail vein; remark: listed apart in the source
[20] = male, Sprague-Dawley, rat, in vivo
[21] = after 1 hour continuous infusion at 2 times the MIR, SD rats
[22] = continuous infusion 2 x MIR 1 hour, rats affected/rats
[23] = continuous tail vein infusion at 2 times the MIR, SD rats
[24] = read-out: EC50 (Corticosterone)
[25] = 2ED50, tail vein, rats, n=8, unit s
[26] = equivalent dose (2 × ED50), number of rats of n = 8
[27] = LORR in rats, tail vein, brackets = 95% confidence limit
[28] = LORR, up and down method, tail vein, rats, brackets = 95% confidence limit
[29] = equivalent dose (2ED50), number of rats of n = 8

## CC(C)c1cccc(C(C)C)c1O [Propofol, propofol, reference compound]
[1]
  Corticosterone as an indicator to determine the presence of inhibition: 0
  Cortisol as an indicator to determine the presence of inhibition: 0
[1]; Homo sapiens, NCI-H295R, read-out: EC50 (Corticosterone)
  EC50: > 10 µM
[1]; Homo sapiens, NCI-H295R, read-out: EC50 (Cortisol)
  EC50: > 10 µM
[2]
  inhibitory effect on the circulatory function (MAP, HR): significant inhibition of the circulatory function
[3]; rat, in vivo
  Adverse reaction: Convulsions: 0
  Adverse reaction: Cough, broken-winded: 0
  Adverse reaction: Euphoria: 0
  Adverse reaction: Four limbs rigidity: 1
  Adverse reaction: Slower breathing, Tetany convulsion: 2
  Adverse reaction: Systemic stiffness, Convulsions, Opisthotonus: 0
  Adverse reaction: Tongue stretching: 0
  Adverse reaction: Tremor: 2
  Onset time: <30 s
  Righting reflex duration: 8.53 ± 1.52 min
  Sedation duration: 14.77 ± 3.50 min
[4]; Rattus norvegicus
  ED50: 5.51 mg/kg
[4]; [20]
  Minimal lethal dose: 28 mg/kg
[4]; rats
  Approximate therapeutic index: 5
[5]; Rattus norvegicus
  ED50: 5.01 mg/kg
[5]; [20]
  Minimal lethal dose: 22.6 mg/kg
[5]; rats
  Approximate therapeutic index: 4.0
[6]
  effect on the circulatory function (MAP, HR): significant inhibition on the circulatory system function
[7]
  Onset time: 0.19 ± 0.03 min
  Righting reflex duration: 8.36 ± 2 min
[7]; (animals affected/animals)
  Types and incidence of adverse reactions: Intermittent Tremor(6/8),; also recorded: Bucking (5/8),; also recorded: Tongue stretching(4/8),; also recorded: Forelimb rigidity (2/8),; also recorded: Hindlimb rigidity(2/8)
[8]; rat, in vivo
  Adverse reaction: Convulsions: 0
  Adverse reaction: Cough, broken-winded: 0
  Adverse reaction: Euphoria: 0
  Adverse reaction: Slower breathing, Tetany convulsion: 2
  Adverse reaction: Systemic stiffness, Convulsions, Opisthotonus: 0
  Adverse reaction: Tongue stretching: 0
  Adverse reaction: Tremor: 0
  Adverse reaction: the four limbs rigidity: 2
  Onset time: <30 s
  Righting reflex duration: 8.53 ± 1.52 min
  Sedation duration: 14.77 ± 3.50 min
[9]
  inhibitory effect on the circulatory function (MAP, HR): significant inhibition of the circulatory function
[10]
  effect on the circulatory function (MAP, HR): significant inhibition on the circulatory system function
[11]; Rattus norvegicus
  ED50: 5.51 mg/kg
[11]; [20]
  Minimal lethal dose: 28 mg/kg
[11]; rats
  Approximate therapeutic index: 5
[12]
  Corticosterone as an indicator to determine the presence of inhibition: 0
  Cortisol as an indicator to determine the presence of inhibition: 0
[12]; Homo sapiens, read-out: EC50 (Corticosterone)
  EC50: > 10 µM
[12]; Homo sapiens, read-out: EC50 (Cortisol)
  EC50: > 10 µM
[13]; Rattus norvegicus
  ED50: 5.01 mg/kg
[13]; [20]
  Minimal lethal dose: 22.6 mg/kg
[13]; rats
  Approximate therapeutic index: 4.0

## COC(=O)C1(OC(=O)c2cncn2[C@H](C)c2ccccc2)CC1 [CPMM, cyclopropyl methoxycarbonyl metamidate, reference compound]
[14]
  Minimal lethal dose: 20.6 mg/kg
[15]; [21]
  After the infusion is stopped: Righting reflex recovery time: 8 to 10 min
  Recovery time after stopping infusion: 10 to 15 min
[15]; [22]
  Types and incidence of adverse reactions: Hindlimb rigidity: Hindlimb rigidity(4/6)
  Types and incidence of adverse reactions: Red urine: 6/6
  Types and incidence of adverse reactions: Tremor: 4/6
[15]; [23]
  Sedation onset time: <5 min
[16]; after 1 hour continuous infusion at 2 times the MIR, rats
  Recovery time after stopping infusion: 7 to 8 min
[16]; [22]
  Types and incidence of adverse reactions: Convulsions: Convulsions (3/6), Tremor
  Types and incidence of adverse reactions: Myoclonus: (5/6), Myoclonus (5/6)
  Types and incidence of adverse reactions: Tremor: (5/6), Myoclonus (5/6)
[16]; continuous tail vein infusion at 2 times the MIR, emulsion, rats
  Onset time: 3 to 4 min
[1]
  Corticosterone as an indicator to determine the presence of inhibition: 1 (Mild inhibition (using CPMM as a control))
  Cortisol as an indicator to determine the presence of inhibition: 1 (Mild inhibition (using CPMM as a control))
[1]; [24]
  EC50: > 0.1 µM
[1]; read-out: EC50 (Cortisol)
  EC50: > 0.01 µM
[17]; LORR maintained for 1 hour, 2 times the MIR
  Recovery time after stopping infusion: 7 to 8 min
[17]; continuous infusion, 2 times the MIR
  Onset time: 3 to 4 min
[17]; continuous infusion, (animals affected/animals)
  Types and incidence of adverse reactions: Convulsions(3/6),; also recorded: Tremor(5/6),; also recorded: Myoclonus(5/6),
[18]; [21]
  After the infusion is stopped: Righting reflex recovery time: 8 to 10 min
  Recovery time after stopping infusion: 10 to 15 min
[18]; [22]
  Types and incidence of adverse reactions: Hindlimb rigidity: Hindlimb rigidity(4/6)
  Types and incidence of adverse reactions: Red urine: 6/6
  Types and incidence of adverse reactions: Tremor: 4/6
[18]; [23]
  Sedation onset time: <5 min
[3]; 2ED50, tail vein, rats, n=8
  Righting reflex duration: 2.71 ± 0.97 min
  Sedation duration: 8.48 ± 2.58 min
[3]; [25]
  Onset time: <30 s
[3]; [26]
  Adverse reaction: Convulsions: 0
  Adverse reaction: Cough, broken-winded: 0
  Adverse reaction: Euphoria: 0
  Adverse reaction: Four limbs rigidity: 2
  Adverse reaction: Slower breathing, Tetany convulsion: 0
  Adverse reaction: Systemic stiffness, Convulsions, Opisthotonus: 0
  Adverse reaction: Tongue stretching: 4
  Adverse reaction: Tremor: 2
[4]; [27]
  ED50: 0.78(0.74-0.82)* mg/kg
[4]; rats
  Approximate therapeutic index: >10
  Minimal lethal dose: >7.8 mg/kg
[5]; [28]
  ED50: 0.49(0.45-0.53)* mg/kg
[5]; rats
  Approximate therapeutic index: 42.0
[7]
  Onset time: 0.26 ± 0.08 min
  Righting reflex duration: 1.62 ± 0.63 min
[8]; 2ED50, tail vein, rats, n=8
  Righting reflex duration: 2.71 ± 0.97 min
  Sedation duration: 8.48 ± 2.58 min
[8]; [25]
  Onset time: <30 s
[8]; [29]
  Adverse reaction: Convulsions: 0
  Adverse reaction: Cough, broken-winded: 0
  Adverse reaction: Euphoria: 0
  Adverse reaction: Red urine: 8
  Adverse reaction: Slower breathing, Tetany convulsion: 3
  Adverse reaction: Systemic stiffness, Convulsions, Opisthotonus: 0
  Adverse reaction: Tongue stretching: 4
  Adverse reaction: Tremor: 5
  Adverse reaction: the four limbs rigidity: 4
[9]
  inhibitory effect on the circulatory function (MAP, HR): almost no inhibitory effect on the circulatory function
[11]; [27]
  ED50: 0.78(0.74-0.82)* mg/kg
[11]; rats
  Approximate therapeutic index: >10
  Minimal lethal dose: >7.8 mg/kg
[19]
  Minimal lethal dose: 20.6 mg/kg
[12]
  Corticosterone as an indicator to determine the presence of inhibition: 1 (Mild inhibition (using CPMM as a control))
  Cortisol as an indicator to determine the presence of inhibition: 1 (Mild inhibition (using CPMM as a control))
[12]; [24]
  EC50: > 0.1 µM
[12]; read-out: EC50 (Cortisol)
  EC50: > 0.01 µM
[13]; [28]
  ED50: 0.49(0.45-0.53)* mg/kg
[13]; rats
  Approximate therapeutic index: 42.0
